Experimental data from article PMC2362650, “Phase I and pharmacokinetic study of the topoisomerase II catalytic inhibitor fostriecin” (British Journal of Cancer, 1999).

Assay: Phase I study: toxicity graded with NCI common toxicity criteria in patients
Type: in vivo, human
Excerpt: Fostriecin (CI-920) is a topoisomerase (topo) II catalytic activity inhibitor (Boritzki et al, 1988) (Figure 1). This novel class of topo II-targeting drugs is considered of potential value for treatment of patients with tumours resistant to classic topo II poisons, including anthracyclines and podophyllotoxins (Cummings and Smyth, 1993). The nuclear enzyme topo II is essential for the regulation of DNA conformation (reviewed in Osheroff et al, 1991). Central in its action is the formation of a complex with DNA. Stabilization of this complex by topo II poisons induces DNA damage and cell death (Froelich-Ammon and Osheroff, 1995). Decreased complex formation due to decreased topo II levels is considered to be an important mechanism of tumour-resistance to topo II poisons (Beck and Danks, 1991). The topo II catalytic inhibitor fostriecin is expected to have increased activity against tumour cells with low topo II levels and this was confirmed in in vitro studies (De Jong et al, 1991). […] Because of increased toxi- city of fostriecin in dogs compared to mice, a dose below one-third of the one-tenth mouse equivalent LD10, 2 mg m-2 day-1, was chosen as starting dose in humans (Clinical Brochure Fostriecin, 1991). […] We also performed an analysis of the human pharmacokinetics of fostriecin and ex vivo experiments to investigate if the plasma drug concentrations achieved were sufficient to inhibit a tenipo- side-resistant tumour cell line. The maximum tolerated dose (MTD) of fostriecin could not be established because drug supply was stopped prematurely. However, results of this study may provide a basis for continued clinical development of this agent. PATIENTS AND METHODS Patient selection, drug administration and evaluation Patient eligibility criteria were: histologically confirmed diagnosis of a solid tumour, no longer amenable to established forms of treatment; age 18-75 years; Eastern Cooperative Oncology Group (ECOG) performance status 2; life expectancy 12 weeks; no Phase I and pharmacokinetic study of the topoisomerase II catalytic inhibitor fostriecin RS de Jong1, NH Mulder1, DRA Uges2, DTh Sleijfer1, FJP Hoppener4, HJM Groen3, PHB Willemse1, WTA van der Graaf1 and EGE de Vries1 Departments of 1Medical Oncology, 2Pharmacy and Toxicology, and 3Pulmonary Diseases, University Hospital Groningen, The Netherlands; 4EORTC New Drug Development Office, Amsterdam, The Netherlands Summary We conducted a phase I and pharmacokinetic study of the topoisomerase II catalytic inhibitor fostriecin. Fostriecin was administered intravenously over 60 min on days 1-5 at 4-week intervals. Dose was escalated from 2 mg m-2 day-1 to 20 mg m-2 day-1 in 20 patients. Drug pharmacokinetics was analysed with high performance liquid chromatography with UV-detection. Plasma collected during drug administration was tested in vitro for growth inhibition of a teniposide-resistant small-cell lung cancer (SCLC) cell line. The predominant toxicities were elevated liver transaminases (maximum common toxicity criteria (CTC) grade 4) and serum creatinine (maximum CTC grade 2). […] Duration of elevated alanine-amino transferase (ALT) was dose-limiting in one patient at 20 mg m-2. Other frequent toxicities were grade 1-2 nausea/vomiting, fever and mild fatigue. […] A metabolite, most probably dephosphorylated fostriecin, was detected in plasma and urine. […] However, further escalation seems possible and is warranted to achieve potentially effective drug levels. Fostriecin has a short plasma half-life and longer duration of infusion should be considered. […]

[1] = 4 mg m-2, 5 patients/11 courses
[2] = 6.6 mg m-2, 3 patients/4 courses
[3] = 10 mg m-2, 3 patients/7 courses

Compound: C[C@@](O)(/C=C/[C@H]1CC=CC(=O)O1)[C@@H](C[C@@H](O)\C=C/C=C\C=C\CO)OP(=O)(O)O [fostriecin]
- CTC-grade 1 ALP: courses causing toxicity, all full-dose courses (2 mg m-2, 4 patients/8 courses): 2
- CTC-grade 1 ALP: patients developing toxicity in first course (2 mg m-2, 4 patients/8 courses): 1
- CTC-grade 1 ALT: courses causing toxicity, all full-dose courses (2 mg m-2, 4 patients/8 courses): 6
- CTC-grade 1 ALT: patients developing toxicity in first course (2 mg m-2, 4 patients/8 courses): 2
- CTC-grade 1 AST: courses causing toxicity, all full-dose courses (2 mg m-2, 4 patients/8 courses): 2
- CTC-grade 1 AST: patients developing toxicity in first course (2 mg m-2, 4 patients/8 courses): 2
- CTC-grade 1 GGT: courses causing toxicity, all full-dose courses (2 mg m-2, 4 patients/8 courses): 2
- CTC-grade 1 GGT: patients developing toxicity in first course (2 mg m-2, 4 patients/8 courses): 0
- CTC-grade 1 creatinine: courses causing toxicity, all full-dose courses (2 mg m-2, 4 patients/8 courses): 4
- CTC-grade 1 creatinine: patients developing toxicity in first course (2 mg m-2, 4 patients/8 courses): 2
- CTC-grade 2 ALT: courses causing toxicity, all full-dose courses (2 mg m-2, 4 patients/8 courses): 1
- CTC-grade 2 ALT: patients developing toxicity in first course (2 mg m-2, 4 patients/8 courses): 1
- CTC-grade 2 GGT: courses causing toxicity, all full-dose courses (2 mg m-2, 4 patients/8 courses): 2
- CTC-grade 2 GGT: patients developing toxicity in first course (2 mg m-2, 4 patients/8 courses): 1
- CTC-grade 1 ALP: courses causing toxicity, all full-dose courses [1]: 3
- CTC-grade 1 ALP: patients developing toxicity in first course [1]: 3
- CTC-grade 1 ALT: courses causing toxicity, all full-dose courses [1]: 8
- CTC-grade 1 ALT: patients developing toxicity in first course [1]: 4
- CTC-grade 1 AST: courses causing toxicity, all full-dose courses [1]: 7
- CTC-grade 1 AST: patients developing toxicity in first course [1]: 3
- CTC-grade 1 GGT: courses causing toxicity, all full-dose courses [1]: 1
- CTC-grade 1 GGT: patients developing toxicity in first course [1]: 1
- CTC-grade 1 creatinine: courses causing toxicity, all full-dose courses [1]: 7
- CTC-grade 1 creatinine: patients developing toxicity in first course [1]: 3
- CTC-grade 2 ALP: courses causing toxicity, all full-dose courses [1]: 1
- CTC-grade 2 ALP: patients developing toxicity in first course [1]: 0
- CTC-grade 2 ALT: courses causing toxicity, all full-dose courses [1]: 1
- CTC-grade 2 ALT: patients developing toxicity in first course [1]: 0
- CTC-grade 2 AST: courses causing toxicity, all full-dose courses [1]: 1
- CTC-grade 2 AST: patients developing toxicity in first course [1]: 1
- CTC-grade 2 GGT: courses causing toxicity, all full-dose courses [1]: 0
- CTC-grade 2 GGT: patients developing toxicity in first course [1]: 0
- CTC-grade 3 ALT: courses causing toxicity, all full-dose courses [1]: 2
- CTC-grade 3 ALT: patients developing toxicity in first course [1]: 1
- CTC-grade 3 AST: courses causing toxicity, all full-dose courses [1]: 1
- CTC-grade 3 AST: patients developing toxicity in first course [1]: 0
- CTC-grade 3 GGT: courses causing toxicity, all full-dose courses [1]: 4
- CTC-grade 3 GGT: patients developing toxicity in first course [1]: 1
- CTC-grade 1 ALP: courses causing toxicity, all full-dose courses [2]: 3
- CTC-grade 1 ALP: patients developing toxicity in first course [2]: 0
- CTC-grade 1 ALT: courses causing toxicity, all full-dose courses [2]: 2
- CTC-grade 1 ALT: patients developing toxicity in first course [2]: 2
- CTC-grade 1 AST: courses causing toxicity, all full-dose courses [2]: 0
- CTC-grade 1 AST: patients developing toxicity in first course [2]: 0
- CTC-grade 1 GGT: courses causing toxicity, all full-dose courses [2]: 0
- CTC-grade 1 GGT: patients developing toxicity in first course [2]: 0
- CTC-grade 1 creatinine: courses causing toxicity, all full-dose courses [2]: 1
- CTC-grade 1 creatinine: patients developing toxicity in first course [2]: 1
- CTC-grade 2 ALP: courses causing toxicity, all full-dose courses [2]: 1
- CTC-grade 2 ALP: patients developing toxicity in first course [2]: 0
- CTC-grade 2 ALT: courses causing toxicity, all full-dose courses [2]: 1
- CTC-grade 2 ALT: patients developing toxicity in first course [2]: 1
- CTC-grade 2 AST: courses causing toxicity, all full-dose courses [2]: 1
- CTC-grade 2 AST: patients developing toxicity in first course [2]: 1
- CTC-grade 2 GGT: courses causing toxicity, all full-dose courses [2]: 0
- CTC-grade 2 GGT: patients developing toxicity in first course [2]: 0
- CTC-grade 2 bilirubin: courses causing toxicity, all full-dose courses [2]: 1
- CTC-grade 2 bilirubin: patients developing toxicity in first course [2]: 1
- CTC-grade 3 ALT: courses causing toxicity, all full-dose courses [2]: 1
- CTC-grade 3 ALT: patients developing toxicity in first course [2]: 0
- CTC-grade 3 AST: courses causing toxicity, all full-dose courses [2]: 2
- CTC-grade 3 AST: patients developing toxicity in first course [2]: 1
- CTC-grade 3 GGT: courses causing toxicity, all full-dose courses [2]: 1
- CTC-grade 3 GGT: patients developing toxicity in first course [2]: 1
- CTC-grade 1 ALP: courses causing toxicity, all full-dose courses [3]: 1
- CTC-grade 1 ALP: patients developing toxicity in first course [3]: 1
- CTC-grade 1 ALT: courses causing toxicity, all full-dose courses [3]: 0
- CTC-grade 1 ALT: patients developing toxicity in first course [3]: 0
- CTC-grade 1 AST: courses causing toxicity, all full-dose courses [3]: 3
- CTC-grade 1 AST: patients developing toxicity in first course [3]: 0
- CTC-grade 1 GGT: courses causing toxicity, all full-dose courses [3]: 6
- CTC-grade 1 GGT: patients developing toxicity in first course [3]: 2
- CTC-grade 1 creatinine: courses causing toxicity, all full-dose courses [3]: 3
- CTC-grade 1 creatinine: patients developing toxicity in first course [3]: 2
- CTC-grade 2 ALT: courses causing toxicity, all full-dose courses [3]: 3
- CTC-grade 2 ALT: patients developing toxicity in first course [3]: 0
- CTC-grade 2 AST: courses causing toxicity, all full-dose courses [3]: 1
- CTC-grade 2 AST: patients developing toxicity in first course [3]: 1
- CTC-grade 2 GGT: courses causing toxicity, all full-dose courses [3]: 0
- CTC-grade 2 GGT: patients developing toxicity in first course [3]: 0
- CTC-grade 2 creatinine: courses causing toxicity, all full-dose courses [3]: 4
- CTC-grade 2 creatinine: patients developing toxicity in first course [3]: 1
- CTC-grade 3 ALT: courses causing toxicity, all full-dose courses [3]: 2
- CTC-grade 3 ALT: patients developing toxicity in first course [3]: 2
- CTC-grade 3 GGT: courses causing toxicity, all full-dose courses [3]: 1
- CTC-grade 3 GGT: patients developing toxicity in first course [3]: 1
